Data set [1] relates to Agrobactierium tumefaciens DSM 3129. As to the kind of experiment: Minimal inhibitory concentration in liquid culture. Format: cell-based. As to conditions: 200 μl rich medium, 10^4 log-phase bacteria.
The test system of data set [2] is Shigella flexneri CP 87. As to the kind of experiment: Minimal inhibitory concentration in liquid culture. Format: cell-based. As to conditions: 200 μl rich medium, 10^4 log-phase bacteria. The procedure: (§1) In addition the exact concentration was determined precisely by amino-acid analysis and an equal sample of natural Bee 6b was prepared, allowing to compare the bactericidal activity of both natural and synthetic apidaecins by means of growth inhibition assays in liquid cultures (see mat & Meth.). The minimal inhibitory concentrations (μg/ml) were determined in liquid culture : 200 μl of a rich medium (trypticase soy broth or nutrient broth) was inoculated with 10^4 log-phase bacteria. Peptide concentrations ranged between 0 and 200 μg/ml. The values express μg/ml; when no inhibition was noticed the maximal values are given (+200 μg/ml or +50 μg/ml). All peptides were chemically synthesized, except for bee 6b which is purified from bee lymph.

Data set [3] deals with Erwinia salicis NCPPB 2530. As to the kind of experiment: Minimal inhibitory concentration in liquid culture. Format: cell-based. As to conditions: 200 μl rich medium, 10^4 log-phase bacteria.
For data set [4], the system named is Pseudomonas syringae pv. tomato NCPPB 1106. As to the kind of experiment: Minimal inhibitory concentration in liquid culture. Format: cell-based. As to conditions: 200 μl rich medium, 10^4 log-phase bacteria.
In data set [5] the test system is Rhizobium meliloti ZB 314. As to the kind of experiment: Minimal inhibitory concentration in liquid culture. As to conditions: 200 μl rich medium, 10^4 log-phase bacteria. Format: cell-based.
In data set [6] the test system is Citrobacter freundii ATCC 8090. As to the kind of experiment: Minimal inhibitory concentration in liquid culture. As to conditions: 200 μl rich medium, 10^4 log-phase bacteria. Format: cell-based.
Data set [7] relates to Escherichia coli NCTC 9001. As to the kind of experiment: Minimal inhibitory concentration in liquid culture. Format: cell-based. As to conditions: 200 μl rich medium, 10^4 log-phase bacteria.
Data set [8] has as its system Salmonella Newport CD 94. As to the kind of experiment: Minimal inhibitory concentration in liquid culture. Format: cell-based. As to conditions: 200 μl rich medium, 10^4 log-phase bacteria.
In data set [9] the test system is Salmonella typhimurium ATCC 23565. As to the kind of experiment: Minimal inhibitory concentration in liquid culture. Format: cell-based. As to conditions: 200 μl rich medium, 10^4 log-phase bacteria.
The subject of data set [10] is Bacillus megaterium QB 1551. As to the kind of experiment: Minimal inhibitory concentration in liquid culture. As to conditions: 200 μl rich medium, 10^4 log-phase bacteria, + = no inhibition at maximal value. Format: cell-based.
The subject of data set [11] is E. coli NCTC 9001. As to the kind of experiment: Bactericidal activity, method not stated. Format: cell-based. As to conditions: lyophilized apidaecins resuspended in PBS.
The subject of data set [12] is E. coli NCTC 9001. Format: cell-based. As to conditions: NCTC 9001, 72 h. The procedure:
Whole lymph or purified components, resuspended in PBS to a final volume equal to the starting material (heated lymph), was applied in 3 mm wells on agar plates seeded with the test organisms. Antibacterial activity was determined by measuring the growth-inhibition zones (in mm).
Test conditions: agar inhibition zone obtained with 10 namomole apidaecin, resuspended in 20 μl H2 O/well.

Data set [13] concerns Tobacco leaf protoplasts.
For data set [14], the system named is Corynebacterium insidiosum NCPPB 1109. As to the kind of experiment: Minimal inhibitory concentration in liquid culture. Format: cell-based. As to conditions: 200 μl rich medium, 10^4 log-phase bacteria. Here is the method: as §1
The test system of data set [15] is Corynebacterium michiganense pv. michiganense NCPPB 1573. As to the kind of experiment: Minimal inhibitory concentration in liquid culture. As to conditions: 200 μl rich medium, 10^4 log-phase bacteria, + = no inhibition at maximal value. Format: cell-based. The procedure: as §1
Data set [16] relates to Xanthomonas campestris pv. vesicatoria LMG 905. As to the kind of experiment: Minimal inhibitory concentration in liquid culture. Format: cell-based. As to conditions: 200 μl rich medium, 10^4 log-phase bacteria, + = no inhibition at maximal value. Here is the method: as §1
In data set [17] the test system is Erwinia carotovora var atroseptica LMG 2385. As to the kind of experiment: Minimal inhibitory concentration in liquid culture. Format: cell-based. As to conditions: 200 μl rich medium, 10^4 log-phase bacteria.
The subject of data set [18] is Erwinia carotovora var carotovora NCPPB 312. As to the kind of experiment: Minimal inhibitory concentration in liquid culture. Format: cell-based. As to conditions: 200 μl rich medium, 10^4 log-phase bacteria.
Data set [19] deals with Pseudomonas syringae pv. maculicola NCPPB 1776. As to the kind of experiment: Minimal inhibitory concentration in liquid culture. As to conditions: 200 μl rich medium, 10^4 log-phase bacteria. Format: cell-based.
Data set [20] has as its system Pseudomonas syringae pv. tabaci NCPPB 1237. As to the kind of experiment: Minimal inhibitory concentration in liquid culture. Format: cell-based. As to conditions: 200 μl rich medium, 10^4 log-phase bacteria.
Data set [21] has as its system Pseudomonas solanacearum ATCC 11696. Format: cell-based. As to conditions: 200 μl rich medium, 10^4 log-phase bacteria.
Data set [22] deals with Xanthomonas campestris pv. campestris A 902. As to the kind of experiment: Minimal inhibitory concentration in liquid culture. Format: cell-based. As to conditions: 200 μl rich medium, 10^4 log-phase bacteria, + = no inhibition at maximal value.

SMILES strings stand for the structures. Values after ≈ are worked out from the molar mass of the structure shown. Where a SMILES comes first, the peptide text is derived from it. Some results are limits rather than exact numbers.

The text below walks through data of patent publication US5300629A, “Bactericidal and/or bacteriostatic peptides isolated from hemolymph of honeybees” (Plant Genetic Systems, N.V., priority 1987, dated 1994).

Take `CC[C@H](C)[C@H](NC(=O)[C@H](Cc1ccc(O)cc1)NC(=O)[C@@H](NC(=O)[C@@H]1CCCN1C(=O)[C@H](CCCNC(=N)N)NC(=O)[C@H](CC(N)=O)NC(=O)[C@H](CC(N)=O)NC(=O)CN)C(C)C)C(=O)N[C@@H](CCC(N)=O)C(=O)N1CCC[C@H]1C(=O)N[C@@H](CCCNC(=N)N)C(=O)N1CCC[C@H]1C(=O)N1CCC[C@H]1C(=O)N[C@@H](Cc1c[nH]cn1)C(=O)N1CCC[C@H]1C(=O)N[C@@H](CCCNC(=N)N)C(=O)N[C@@H](CC(C)C)C(=O)O` [Apid PT-1] (H-GNNRPVYIQPRPPHPRL-OH): the minimal inhibitory concentration in data set [1] worked out at 0.5 µg/mL (≈ 0.249 µM); in [2], 0.5 µg/mL (≈ 0.249 µM); in data set [3], 0.05 µg/mL (≈ 0.0249 µM); in [4], 0.1 µg/mL (≈ 0.0497 µM); in data set [5], 0.02 µg/mL (≈ 0.00994 µM); in [6], 5 µg/mL (≈ 2.49 µM). The minimal inhibitory concentration in [7] was 5 µg/mL (≈ 2.49 µM); in [8], 5 µg/mL (≈ 2.49 µM); in data set [9], 5 µg/mL (≈ 2.49 µM); in data set [10] it was 150 µg/mL. In addition, the bactericidal activity entry in [11] is reported as “possessed a bactericidal activity”.

`CC[C@H](C)[C@H](NC(=O)[C@H](Cc1ccc(O)cc1)NC(=O)[C@@H](NC(=O)[C@@H]1CCCN1C(=O)[C@H](CCCNC(=N)N)NC(=O)[C@H](CC(N)=O)NC(=O)[C@H](CC(N)=O)NC(=O)CN)C(C)C)C(=O)N1CCC[C@H]1C(=O)N[C@@H](CCC(N)=O)C(=O)N1CCC[C@H]1C(=O)N[C@@H](CCCNC(=N)N)C(=O)N1CCC[C@H]1C(=O)N1CCC[C@H]1C(=O)N[C@@H](Cc1c[nH]cn1)C(=O)N1CCC[C@H]1C(=O)N[C@@H](CCCNC(=N)N)C(=O)N[C@@H](CC(C)C)C(=O)O` [Apid Ib] (H-GNNRPVYIPQPRPPHPRL-OH) showed an agar inhibition zone in data set [12] of 18 mm. Further, the bactericidal activity result in data set [11] is “possessed a bactericidal activity”.

Consider `CC[C@H](C)[C@H](NC(=O)[C@H](Cc1ccc(O)cc1)NC(=O)[C@@H](NC(=O)[C@@H]1CCCN1)C(C)C)C(=O)N1CCC[C@H]1C(=O)N[C@@H](CCC(N)=O)C(=O)N1CCC[C@H]1C(=O)N[C@@H](CCCNC(=N)N)C(=O)N1CCC[C@H]1C(=O)N1CCC[C@H]1C(=O)N[C@@H](Cc1c[nH]cn1)C(=O)N1CCC[C@H]1C(=O)N[C@@H](CCCNC(=N)N)C(=O)N[C@@H](CC(C)C)C(=O)O` [Apid Ib4, P-V-Y-I-P-Q-P-R-P-P-H-P-R-L] (H-PVYIPQPRPPHPRL-OH), for which the agar inhibition zone in [12] is reported as 14 mm.

Take `CC[C@H](C)[C@H](NC(=O)[C@@H](N)Cc1ccc(O)cc1)C(=O)N1CCC[C@H]1C(=O)N[C@@H](CCC(N)=O)C(=O)N1CCC[C@H]1C(=O)N[C@@H](CCCNC(=N)N)C(=O)N1CCC[C@H]1C(=O)N1CCC[C@H]1C(=O)N[C@@H](Cc1c[nH]cn1)C(=O)N1CCC[C@H]1C(=O)N[C@@H](CCCNC(=N)N)C(=O)N[C@@H](CC(C)C)C(=O)O` [Apid IB6, Y-I-P-Q-P-R-P-P-H-P-R-L] (H-YIPQPRPPHPRL-OH): the agar inhibition zone in [12] was 9 mm.

`CC[C@H](C)[C@H](NC(=O)[C@H](Cc1ccc(O)cc1)NC(=O)[C@@H](NC(=O)[C@@H]1CCCN1C(=O)[C@H](CCCNC(=N)N)NC(=O)[C@@H](N)CC(N)=O)C(C)C)C(=O)N1CCC[C@H]1C(=O)N[C@@H](CCC(N)=O)C(=O)N1CCC[C@H]1C(=O)N[C@@H](CCCNC(=N)N)C(=O)N1CCC[C@H]1C(=O)N1CCC[C@H]1C(=O)N[C@@H](Cc1c[nH]cn1)C(=O)N1CCC[C@H]1C(=O)N[C@@H](CCCNC(=N)N)C(=O)N[C@@H](CC(C)C)C(=O)O` [Apid Ib2, N-R-P-V-Y-I-P-Q-P-R-P-P-H-P-R-L] (H-NRPVYIPQPRPPHPRL-OH): the agar inhibition zone in [12] is recorded as 16 mm.

Regarding `CC[C@H](C)[C@H](NC(=O)[C@H](Cc1ccc(O)cc1)NC(=O)[C@@H](NC(=O)[C@@H]1CCCN1C(=O)[C@H](CCCNC(=N)N)NC(=O)[C@H](CC(N)=O)NC(=O)[C@H](CC(N)=O)NC(=O)CN)C(C)C)C(=O)N1CCC[C@H]1C(=O)N[C@@H](CCC(N)=O)C(=O)N1CCC[C@H]1C(=O)N[C@@H](CCCNC(=N)N)C(=O)N1CCC[C@H]1C(=O)N1CCC[C@H]1C(=O)N[C@@H](Cc1cnc[nH]1)C(=O)N1CCC[C@H]1C(=O)N[C@@H](CCCNC(=N)N)C(=O)N[C@@H](CC(C)C)C(=O)O` [bee 6b] (H-GNNRPVYIPQPRPPHPRL-OH), the “cell division and callus formation” value in data set [13] (after immobilization in low melting agarose) is “normal cell division and callus formation occured”. Further, the “visible effects during incubation” value in [13] (tobacco leaf protoplasts 10^6 cells/ml, 2 days, 10 ng/ml up to 50 μg/ml) is given as “no visible effects were observed”.

Consider `CC[C@H](C)[C@H](NC(=O)[C@H](CCCNC(=N)N)NC(=O)[C@@H]1CCCN1C(=O)[C@H](Cc1c[nH]cn1)NC(=O)[C@@H]1CCCN1C(=O)[C@@H]1CCCN1C(=O)[C@H](CCCNC(=N)N)NC(=O)[C@@H]1CCCN1C(=O)[C@H](CCC(N)=O)NC(=O)[C@@H]1CCCN1C(=O)[C@@H](NC(=O)[C@H](Cc1ccc(O)cc1)NC(=O)[C@@H](NC(=O)[C@@H]1CCCN1C(=O)[C@H](CCCNC(=N)N)NC(=O)[C@H](CC(N)=O)NC(=O)[C@H](CC(N)=O)NC(=O)[C@H](CC(N)=O)NC(=O)CN)C(C)C)[C@@H](C)CC)C(=O)O` [Apid NT+1] (H-GNNNRPVYIPQPRPPHPRI-OH), for which the minimal inhibitory concentration in [1] was 0.2 µg/mL (≈ 0.09 µM); in data set [14], 100 µg/mL (≈ 45 µM); in [15], more than 50 µg/mL; in data set [2], 0.1 µg/mL (≈ 0.045 µM); in [16] it was more than 50 µg/mL; in data set [17] it was 1 µg/mL (≈ 0.45 µM). In addition, the minimal inhibitory concentration in data set [18] was found to be 2.5 µg/mL (≈ 1.12 µM); in data set [3], 0.02 µg/mL (≈ 0.009 µM); in data set [4], 1 µg/mL (≈ 0.45 µM); in data set [19] it was 2.5 µg/mL (≈ 1.12 µM); in data set [20], 2.5 µg/mL (≈ 1.12 µM); in data set [21], 25 µg/mL (≈ 11.2 µM). The minimal inhibitory concentration in data set [5] was 0.1 µg/mL (≈ 0.045 µM); in data set [22] it was more than 50 µg/mL; in [6], 0.2 µg/mL (≈ 0.09 µM); in data set [7], 0.2 µg/mL (≈ 0.09 µM); in data set [8], 1 µg/mL (≈ 0.45 µM); in [9], 0.1 µg/mL (≈ 0.045 µM). Moreover, the minimal inhibitory concentration in data set [10] is 100 µg/mL. Further, the bactericidal activity result in data set [11] is listed as “possessed a bactericidal activity”.
